Several values for one entry are separate records, joined by “and”; a condition that tells them apart may be missing. Equal values may be shown once. Read-outs that look alike come from different tables or passages of the source. Marks after values point to notes of the source that are not given here.
Columns and labels:
[1] = In vitro stability of mexiletine prodrugs under conditions prevailing in the gut; type: physicochemical; conditions: HPLC
Method: To investigate if the prodrugs of the present invention are stable in conditions mimicking the gut, various mexiletine amino acid prodrugs were incubated at 37° C. in simulated gastric and simulated intestinal juice (USP defined composition) for 2 hours. The remaining concentrations of the prodrug were then assayed by HPLC.

[2] = Systemic availability of mexiletine in the dog from mexiletine prodrugs (oral gavage); type: in vivo
Method: Test substances (i.e., mexiletine, and various mexiletine amino acid prodrugs) were administered by oral gavage to groups of two or some cases five dogs. The characteristics of the test animals are set out in Table 6.
Blood samples were taken at various times after administration and submitted to analysis for parent drug using a validated LC-MS-MS assay. Pharmacokinetic parameters derived from the plasma bioanalytical data were determined using Win Nonlin.

[3] = Systemic availability of mexiletine in the cynomolgus monkey from mexiletine prodrugs (oral gavage); type: in vivo; conditions: 1 mg/kg mexiletine free base
Method: Test substances (i.e., mexiletine, and various mexiletine amino acid prodrugs) were administered by oral gavage to groups of two and, in one case, five male cynomolgus monkeys. Blood samples were taken at various times after administration and submitted to analysis for the parent drug using a validated LC-MS-MS assay. Pharmacokinetic parameters derived from the plasma bioanalytical data were determined using Win Nonlin.

ADR mouse = assay: Anti-myotonic effects in the ADR mouse (righting response); type: in vivo
Method: The effects of oral administration of either mexiletine glutamic acid amide at 5, 10 or 20 mg/kg or mexiletine 5 mg/kg on the righting response of a group of three adr/adr mice were examined on three separate days. Each assessment involved placing the individual mice on their back no fewer than seven successive occasions in rapid succession and determining the time to successful righting at various time pre and post dosing (−10, +15, +30, +60, +120 & +180 mins).

[4] = system: 9-AC induced myotonia in the rat; assay: Anti-myotonic effects in 9-anthracene carboxylic acid (9-AC) treated rats (righting time); type: in vivo; conditions: for Mean ± SEM righting response time: 9-AC 30 mg/kg ip
Method: The use of ip injection of 9-anthracene carboxylic acid is known to induce a myotonic state in rats which can then be used to assess the activity of potential anti-myotonic compounds (Villegas-NavarroA et al (1992) Exp. Toxicol. Pathol. 44 34-39).
Groups of four rats were predosed with 30 mg/kg 9-AC (time 0) and ten minutes later their righting time was assessed repeatedly seven times in rapid succession. They were then dosed po with mexiletine or mexiletine glutamic acid amide at 1, 5, 10, 20 or 40 mg/kg and the righting time reassessed at ˜30, 60, 120 and 180 minutes after 9-AC injection. At each dose level, a group of four control animals, given vehicle alone, was used

[5] = rat
Method: Test substances (i.e., mexiletine & mexiletine glutamic acid amide) were administered by oral gavage to groups of five male Sprague Dawley rats.
Blood samples were taken at various times after administration and submitted to analysis for the prodrug and parent drug using a validated LC-MS-MS assay. Pharmacokinetic parameters derived from the plasma analytical were determined using Win Nonlin.

[6] = In vitro stability of mexiletine prodrugs under conditions prevailing in the gut; type: physicochemical; conditions: 0.1M phosphate buffer pH 7.4, 2 h
[7] = 1 mg/kg mexiletine free base, plasma mexiletine
[8] = oral 5 mg mexiletine free base equivalents/kg, individual animals, Hydrochloride
[9] = oral 5 mg mexiletine free base equivalents/kg, plasma prodrug, individual animals, Hydrochloride
[10] = oral 5 mg mexiletine free base equivalents/kg, plasma prodrug, mean

Cc1cccc(C)c1OCC(C)NC(=O)C(N)CCC(=O)O.Cl (mixture of isomers) [Mexiletine glutamic acid amide, Mexiletine-(S)-Glutamic Acid Amide Hydrochloride]
Simulated gastric fluid (pH 1.1): % remaining after 2 h/37° C. ([1]; simulated gastric fluid pH 1.1, 2 h): 100%
Simulated intestinal fluid (pH 6.8): % remaining after 2 h/37° C. ([1]; simulated intestinal fluid pH 6.8, 2 h): 98.3%
Bioavailability with respect to mexiletine [2]: near complete
AUC of mexiletine [2, 7]: 1020 ng·h/mL
Cmax of mexiletine [2, 7]: 104 ng/mL
T50% Cmax [2, 7]: 7.64 h
F(rel) ([2]; 1 mg/kg mexiletine free base, relative to mexiletine, Hydrochloride, 1 mg/kg): 94.9%
AUC of mexiletine ([3]; plasma mexiletine): 604 ng·h/mL
Cmax of mexiletine ([3]; plasma mexiletine): 90.6 ng/mL
T50% Cmax ([3]; plasma mexiletine): 4.76 h
F(rel) ([3]; relative to mexiletine, Hydrochloride, 1 mg/kg): 87.6%
Effects on righting time (ADR mouse; oral 5 mg/kg): marginal
Mean ± SEM righting response time (ADR mouse; oral 5 mg/kg, +15 mins): 5.70 ± 0.864 s
Mean ± SEM righting response time (ADR mouse; oral 5 mg/kg, +30 mins): 6.53 ± 0.928 s
Mean ± SEM righting response time (ADR mouse; oral 5 mg/kg, +60 mins): 7.13 ± 1.46 s
Mean ± SEM righting response time (ADR mouse; oral 5 mg/kg, +120 mins): 9.22 ± 1.44 s
Mean ± SEM righting response time (ADR mouse; oral 5 mg/kg, +180 mins): 8.38 ± 0.601 s
Mean ± SEM righting response time (ADR mouse; oral 5 mg/kg, −10 mins (pre dosing)): 5.10 ± 0.580 s
Mean ± SEM righting response time (ADR mouse; oral 10 mg/kg, +15 mins): 3.14 ± 0.278 s
Mean ± SEM righting response time (ADR mouse; oral 10 mg/kg, +30 mins, listed as MGAA, Hydrochloride, 10 mg/kg): 2.74+0.37 secs and 2.74 ± 0.373 secs
Mean ± SEM righting response time (ADR mouse; oral 10 mg/kg, +60 mins): 4.41 ± 1.02 s
Mean ± SEM righting response time (ADR mouse; oral 10 mg/kg, +120 mins): 5.45 ± 0.529 s
Mean ± SEM righting response time (ADR mouse; oral 10 mg/kg, +180 mins): 6.92 ± 1.05 s
Mean ± SEM righting response time (ADR mouse; oral 10 mg/kg, −10 mins (pre dosing), listed as MGAA, Hydrochloride, 10 mg/kg): 5.18 ± 0.43 s and 5.18 ± 0.427 s
Mean ± SEM righting response time (ADR mouse; oral 20 mg/kg, +15 mins): 4.23 ± 1.09 s
Mean ± SEM righting response time (ADR mouse; oral 20 mg/kg, +30 mins): 3.06 ± 0.884 s
Mean ± SEM righting response time (ADR mouse; oral 20 mg/kg, +60 mins): 4.05 ± 0.286 s
Mean ± SEM righting response time (ADR mouse; oral 20 mg/kg, +120 mins): 5.90 ± 0.568 s
Mean ± SEM righting response time (ADR mouse; oral 20 mg/kg, +180 mins): 7.90 ± 1.34 s
Mean maximum reduction in righting time (ADR mouse; oral 20 mg/kg, extended over 3 hours): ~60%
Mean ± SEM righting response time (ADR mouse; oral 20 mg/kg, −10 mins (pre dosing)): 7.13 ± 1.84 s
Coefficient of variation of the response ([4]; 10 mg/kg (same molar dose level), time of maximal effect of 9-AC (+30 mins)): 43.3%
Mean ± SEM righting response time ([4]; drug 1 mg/kg po, 9-AC +10 mins (predrug)): 1.98 ± 0.115 s
Mean ± SEM righting response time ([4]; drug 1 mg/kg po, 9-AC +30 mins): 3.52 ± 0.398 s
Mean ± SEM righting response time ([4]; drug 1 mg/kg po, 9-AC +60 mins): 1.86 ± 0.195 s
Mean ± SEM righting response time ([4]; drug 1 mg/kg po, 9-AC +120 mins): 1.07 ± 0.0369 s
Mean ± SEM righting response time ([4]; drug 1 mg/kg po, 9-AC +180 mins): 0.714 ± 0.0427 s
Mean ± SEM righting response time ([4]; drug 5 mg/kg po, 9-AC +10 mins (predrug)): 2.24 ± 0.208 s
Mean ± SEM righting response time ([4]; drug 5 mg/kg po, 9-AC +60 mins): 2.22 ± 0.0828 s
Mean ± SEM righting response time ([4]; drug 5 mg/kg po, 9-AC +120 mins): 1.32 ± 0.194 s
Mean ± SEM righting response time ([4]; drug 5 mg/kg po, 9-AC +180 mins): 1.11 ± 0.220 s
Mean ± SEM righting response time ([4]; drug 10 mg/kg po, 9-AC +10 mins (predrug)): 3.07 ± 0.754 s
Mean ± SEM righting response time ([4]; drug 10 mg/kg po, 9-AC +60 mins): 2.33 ± 0.472 s
Mean ± SEM righting response time ([4]; drug 10 mg/kg po, 9-AC +120 mins): 1.26 ± 0.105 s
Mean ± SEM righting response time ([4]; drug 10 mg/kg po, 9-AC +180 mins): 1.18 ± 0.156 s
Mean ± SEM righting response time ([4]; drug 20 mg/kg po, 9-AC +10 mins (predrug)): 1.90 ± 0.274 s
Mean ± SEM righting response time ([4]; drug 20 mg/kg po, 9-AC +60 mins): 1.51 ± 0.153 s
Mean ± SEM righting response time ([4]; drug 20 mg/kg po, 9-AC +120 mins): 1.18 ± 0.0973 s
Mean ± SEM righting response time ([4]; drug 20 mg/kg po, 9-AC +180 mins): 1.03 ± 0.0709 s
Mean ± SEM righting response time ([4]; drug 40 mg/kg po, 9-AC +10 mins (predrug)): 2.10 ± 0.077 s
Mean ± SEM righting response time ([4]; drug 40 mg/kg po, 9-AC +60 mins): 0.95 ± 0.166 s
Mean ± SEM righting response time ([4]; drug 40 mg/kg po, 9-AC +120 mins): 0.669 ± 0.0558 s
Mean ± SEM righting response time ([4]; drug 40 mg/kg po, 9-AC +180 mins): 0.570 ± 0.0576 s
Overall bioavailability of mexiletine from the prodrug vs mexiletine ([5]; oral): ~2.75 fold
Frel ([5]; oral 5 mg mexiletine free base equivalents/kg, individual animals, vs mexiletine, Hydrochloride): 163^c % and 152^c % and 232% and 303% and 283%
AUC of mexiletine [5, 8]: 29.2* ng · h/mL and 33.3 ng · h/mL and 43.4 ng · h/mL and 40.6 ng · h/mL
Cmax of mexiletine [5, 8]: 8.21 ng/mL and 8.99 ng/mL and 7.97 ng/mL and 10.4 ng/mL and 8.84 ng/mL
T>50% Cmax of mexiletine [5, 8]: 4.1 h (2×) and 2.5 h and 2.4 h and 3.9 h
Tmax of mexiletine [5, 8]: 1 h (3×) and 2 h (2×)
t 1/2 of mexiletine [5, 8]: 1.8* h and 2.6 h and 1.2 h and 2.5 h
t 1/2 of mexiletine, mean ([5]; oral 5 mg mexiletine free base equivalents/kg, ln2/mean k): 1.9^b h
Cmax of mexiletine, mean ([5]; oral 5 mg mexiletine free base equivalents/kg, mean): 8.88 ng/mL
AUC of mexiletine, mean ([5]; oral 5 mg mexiletine free base equivalents/kg, mean (values with extrapolated AUC > 25% omitted)): 39.1 ng·h/mL
Frel, mean ([5]; oral 5 mg mexiletine free base equivalents/kg, mean, vs mexiletine): 273%
Tmax of mexiletine, median ([5]; oral 5 mg mexiletine free base equivalents/kg, median value): 1^a h
T>50% Cmax of mexiletine, median ([5]; oral 5 mg mexiletine free base equivalents/kg, median value, Hydrochloride): 3.9^a h
T>50% Cmax of mexiletine, median ([5]; oral 5 mg mexiletine free base equivalents/kg, median value, listed as MGAA, Hydrochloride): ~4.0 h
AUC of mexiletine glutamic acid amide (prodrug) [5, 9]: 269 ng·h/mL and 266 ng·h/mL and 223 ng·h/mL and 320 ng·h/mL and 413 ng·h/mL
Cmax of mexiletine glutamic acid amide (prodrug) [5, 9]: 127 ng/mL and 186 ng/mL and 101 ng/mL and 180 ng/mL and 138 ng/mL
Tmax of mexiletine glutamic acid amide (prodrug) [5, 9]: 0.25 h and 0.5 h (2×) and 1.0 h (2×)
t 1/2 of mexiletine glutamic acid amide (prodrug) [5, 9]: 1.0 h and 0.9 h (2×) and 1.9 h and 1.3 h
t 1/2 of mexiletine glutamic acid amide (prodrug), mean ([5]; oral 5 mg mexiletine free base equivalents/kg, plasma prodrug, ln2/mean k): 1.0^b h
AUC of mexiletine glutamic acid amide (prodrug), mean [5, 10]: 298 ng·h/mL
Cmax of mexiletine glutamic acid amide (prodrug), mean [5, 10]: 146 ng/mL
Tmax of mexiletine glutamic acid amide (prodrug), median ([5]; oral 5 mg mexiletine free base equivalents/kg, plasma prodrug, median value): 0.5^a h
pH 7.4, 37° C. 0.1M phosphate buffer: % remaining after 2 h/37° C. [6]: 100%

Source: patent US20120196933A1, “MEXILETINE PRODRUGS” (priority 2010, published 2012)
